Test: Human HepG2 cell viability assay in 384 well format
Assay type: toxicity, cell-based
Design: dose 125 nL, time 70.5 hour; concentration not given beside the values
Settings: HepG2 cells, read-out: Inhibition

| Structure (SMILES) | cytotoxicity at 70.5 h [%] |
| --- | --- |
| Cc1ncoc1C(=O)N1CCCC(C(=O)c2cccc(OC(C)C)c2)C1 (configuration not stated) | -8.43 |
| Cn1cc(C[C@H]2[C@H](N3CCOCC3)CCN2C(=O)c2ccoc2)cn1 | -16.3 |
| O=C(c1cnccn1)N1CCc2ncnc(C3CCOC3)c2CC1 (configuration not stated) | -9.35 |
| O=C(c1ccco1)N1CC[C@@H](N2CCOCC2)[C@@H]1Cc1ccccc1 | -7.17 |
| CNC(=O)[C@@]12CCO[C@@H]1CCN(S(=O)(=O)c1ccccc1C)C2 | -10.5 |
| CNC(=O)[C@@]12CCO[C@@H]1CCN(S(=O)(=O)c1ccccc1)C2 | -6.28 |
| Cn1cc(CN2CCCC3(CCN(c4cccnc4)C3=O)C2)cn1 (configuration not stated) | 20 |
| CCOCC1CN(C(=O)c2ccco2)Cc2cnn(CC)c21 (configuration not stated) | 12.3 |
| Cc1noc([C@@H]2CCO[C@@H]3CCN(Cc4nccs4)C[C@@H]32)n1 | 9.78 |
| CCOCC1CN(C(=O)N2CCCC2)Cc2cnn(CC)c21 (configuration not stated) | -4.21 |
| Cc1nnc(SCC(=O)N2CCc3[nH]nc(C4CCC4)c3C2)o1 | 8.24 |
| COCCN(C)C(C(=O)O)c1ccc(F)c(C)c1 (configuration not stated) | -2.89 |
| CCC(=O)N1CCCC(C(=O)NCc2noc(Cc3ccccc3)n2)C1 (configuration not stated) | -12.1 |
| CC(C)N(CCO)C(=O)c1cc(COc2ccc3c(c2)CCCC3)on1 | -10.1 |
| CCCNc1ncc(C2CC(=O)NCc3nc4ccccn4c32)cn1 (configuration not stated) | -8.46 |
| Cc1cc(C)cc(C(C(=O)O)N(C)CCCN2CCOCC2)c1 (configuration not stated) | 8.9 |
| CC(NC(=O)C1CCN(C(=O)C2CC2)CC1)c1nncn1C(C)C (configuration not stated) | -4.92 |
| CC(C)(C)c1cc(CN2C[C@H]3CC[C@@H]2CN(Cc2ccccn2)C3)n[nH]1 | -5.84 |
| CCc1ccc2nc(C)cc(C(=O)N[C@@H]3CNC[C@H]3O)c2c1 | 25.1 |
| CCn1cc(CN2CCCC(c3[nH]ncc3-c3ccc(C)cc3)C2)cn1 (configuration not stated) | -16.8 |
| O=C(c1cc(-c2ccco2)nc2c(Cl)cccc12)N1CCS(=O)(=O)CC1 | -11.9 |
| CNC(=O)CNCC1(O)CCCN(Cc2ccc(F)c(F)c2)C1=O (configuration not stated) | 29 |

| Structure (SMILES) | cytotoxicity at 70.5 h [%] |
| --- | --- |
| CC(C)CCN1CC2(CCN(C(=O)C3(C)CC3)CC2)OC1=O | -0.562 |
| O=C(C1COc2ccccc2O1)N1Cc2cnn(CCO)c2C1 (configuration not stated) | -3.6 |
| CS(=O)(=O)CC1CCCN(c2ncnc3c2Cc2ccccc2OC3)C1 (configuration not stated) | -9.52 |
| CC(C)Cn1cncc1CNC1CCSC1 (configuration not stated) | 21.1 |
| Cc1cccc(CN2CCN(C(=O)c3cc(Cl)c[nH]c3=O)CC2)c1 | -4.23 |
| Cc1ccc2nc(C)c(C)c(C(=O)N3CCN(c4nccs4)CC3)c2c1 | -7.96 |
| N[C@H]1CC[C@@H](Nc2nccc(CCC(F)(F)F)n2)CC1 | -2.71 |
| CCc1nnc(CN2CCC3(CCC(=O)N(C4CCCC4)C3)CC2)o1 | -7.05 |
| Cc1ccc2c(c1)c(CNC(=O)C1CCN(C(=O)C3CC3)CC1)nn2C | -3.75 |
| CCn1cc(-c2c(C)c(C3CCOC(C)(C)C3)nc(N)c2C#N)cn1 (configuration not stated) | 9.87 |
| CCc1cc(N2C[C@H](C3CC3)[C@@H](N)C2)nc(N2CCCC2)n1 | 18.8 |
| O=C(NCCN1CCCCC1CO)c1cc(-c2ccccc2)on1 (configuration not stated) | -4.82 |
| CC(C)c1nc(CN(C)C(=O)CCS(=O)(=O)c2ccccc2)no1 | -8.68 |
| COc1ccc(C(=O)N2C[C@@H](O)[C@H](NCCc3ncccc3C)C2)cc1 | -10.6 |
| N[C@H]1CN(S(=O)(=O)Cc2ccccc2)C[C@@H]1C1CC1 | -6.71 |
| CSCC[C@@H](CO)Nc1nc(-c2ccccn2)nc2c1c(C)nn2C | -0.626 |
| Cc1ccc(CN(C)C(=O)c2cc(Cn3ccnc3C(C)C)[nH]n2)o1 | 3.51 |
| COCCN(CC1CC1)c1nc(CCN)nc2ccccc12 | -4.8 |
| Cc1cnc(CNc2ncc(C)c(-c3cnn(C)c3)n2)cn1 | -14.1 |
| COc1cc(C)cc(C(C(=O)O)N(C)CCN2CCCC2)c1OC (configuration not stated) | -2.88 |
| CNc1ccnc(N2CC[C@@](O)(C3CCOCC3)[C@H](C)C2)n1 | -7.76 |
| Cc1cc(C(F)(F)F)nc(CNC(=O)C2CCCCCN2C)n1 (configuration not stated) | 2.11 |

| Structure (SMILES) | cytotoxicity at 70.5 h [%] |
| --- | --- |
| COc1cccc2c1OCCCN(Cc1ncccc1C(=O)O)C2 | -3.58 |
| O=C1N(CC2CCCCC2)CCCC1(O)CN1CCc2[nH]ncc2C1 (configuration not stated) | -7.48 |
| c1ccc(CN(Cc2ncc[nH]2)Cc2nccs2)cc1 | -14.7 |
| Cc1cc(-c2ccc(C(C)N3CCCCC3)cc2)cnc1N (configuration not stated) | -1.07 |
| CCc1ncc2c(n1)CN(C(=O)CC(C)NC(C)=O)C2 (configuration not stated) | -5.94 |
| CCn1c(CN(C)C)nnc1C1CCN(Cc2ccc(Cl)cc2F)CC1 | -0.622 |
| COc1cccc(Cn2ncnc2CCSC)c1 | -12.2 |
| CN(Cc1ccccc1)CC1(O)CCCN(CCC2CCCCC2)C1=O (configuration not stated) | 29.6 |
| CN1CCCN(C[C@@H]2CN(C(=O)N3CCOCC3)C[C@@H]2CO)CC1 | -3.11 |
| COCC(=O)N1CC[C@]2(O)CCN(Cc3cccnc3OC)C[C@@H]2C1 | -7.29 |
| Cc1noc(-c2ccc(N(C)Cc3ccncn3)nc2)n1 | -5.88 |
| CNS(=O)(=O)c1ccc(CN2CCCN(Cc3ccncc3)CC2)cc1 | 16.9 |
| CN1CCN(C[C@@H]2CN(C3Cc4ccccc4C3)C[C@@H]2CO)CC1 | 22.1 |
| Cc1ncsc1CN(Cc1ccccc1)Cc1ncc[nH]1 | 17.5 |
| CN(C)CCn1ccnc1C1CCN(C(=O)CCC(F)(F)F)CC1 | -7.92 |
| O=C(O)[C@H]1C[C@H](C(=O)NC2CC2)CN(Cc2ccc(-c3cc[nH]n3)s2)C1 | 11.9 |
| CCCc1nc(N2CCCN(c3ncccn3)CC2)c2cnn(C)c2n1 | 4.78 |
| Cc1cc2c(=O)n(CCOCCO)cnc2s1 | -5.77 |
| CCN(Cc1nc(COC)no1)C(=O)CCNC(=O)c1ccccc1F | 22.4 |
| Cc1nc(-c2cccc(N3CCC(NC4CCSC4)CC3)c2)cs1 (configuration not stated) | -1.58 |
| OC1(CNCCc2nc(Cc3ccccc3)no2)CNCCOC1 (configuration not stated) | 0.264 |
| Cc1ccc(N2CCC(C(=O)O)(n3ccc(C(C)C)n3)CC2)nn1 | -1.26 |

| Structure (SMILES) | cytotoxicity at 70.5 h [%] |
| --- | --- |
| OCCN1CCN(Cc2cnc3c(-c4ccccc4)cnn3c2)CC1 | 6.6 |
| CC1(C)CN(C(=O)c2cnc(CN3CCCC3)s2)CC[C@]1(C)O | -0.621 |
| CC(C)c1nc(CN(C)Cc2ccc(O)c(Cl)c2)cs1 | -13.5 |
| CCc1ncc(C(=O)N(CCOC)Cc2nccs2)cn1 | 5.06 |
| CCn1c(N)nc2cc(C(=O)N3CCN(c4nccs4)CC3)cnc21 | -6.84 |
| CN(CCN1CCCC1)c1nccc(N2CCN[C@H]3CS(=O)(=O)C[C@H]32)n1 | 22.4 |
| COc1ccc(CN(C)C2CCN(S(C)(=O)=O)CC2)c2cccnc12 | -1.77 |
| Cc1cnn(CCC(=O)N2CCN(C(=O)C(C)C)[C@@H]3CS(=O)(=O)C[C@@H]32)c1 | -9.72 |
| Cn1cnc(S(=O)(=O)N2C[C@@H]3CC[C@H](C2)N(Cc2ccccn2)C3)c1 | -7.24 |
| CCC(CC)C(=O)N1CCC2(CC1)c1ccccc1[C@@H](OC)[C@@H]2O | -8.24 |
| CCn1nc(C)cc1C(=O)NCc1nc(C)cc(C)n1 | -13.2 |
| CCC[C@H]1CN(CCS(C)(=O)=O)C[C@@H]1NC(=O)c1cccnn1 | 7.31 |
| CC(C)c1cc(C(=O)N2CCCN(CCCc3ccccc3)CC2)[nH]n1 | -8.74 |
| Cc1cc(C(=O)N2CCN[C@H](C)C2)c2ccc(F)cc2n1 | 15.7 |
| COc1ccc(CCNC(=O)N2CCN(C)[C@@H]3CS(=O)(=O)C[C@@H]32)cc1 | -3.24 |
| CC(C)Oc1cc(N2CC[C@@H](N3CCOCC3)[C@H](O)C2)nc(N)n1 | -6.54 |
| Cn1ncc2c(N3CCCN4CCC[C@H]4C3)nc(C(C)(C)C)nc21 | -7.18 |
| CSc1cccc(CN(C)C(=O)Cn2ncc(N3CCCC3)cc2=O)c1 | -3.66 |
| CCNC(=O)[C@@H]1C[C@@H](N)CN1Cc1ccc(-c2ccccc2C#N)o1 | -6.11 |
| CCOc1ccc2[nH]c(=O)c(CN3CCN(S(N)(=O)=O)CC3)cc2c1 | -11.9 |
| CCn1nc(C(C)C)cc1C(=O)NCc1nc2ccc(OC)cc2[nH]1 | -14.7 |
| CCN(C)c1nccc(N2CCN[C@H]3CS(=O)(=O)C[C@H]32)n1 | 10.7 |

| Structure (SMILES) | cytotoxicity at 70.5 h [%] |
| --- | --- |
| O=C(CCn1cc(Cl)cn1)N1CCN(CCOc2ccccc2)CC1 | -4.12 |
| CCc1csc(CNC(=O)C(CC)n2cccn2)n1 (configuration not stated) | -2.46 |
| CCn1c(N)nc2cc(C(=O)NCCCc3ccccn3)cnc21 | -15 |
| O=C(CCc1ccccn1)NC1CCCN(C2Cc3ccccc3C2)C1 (configuration not stated) | -8.7 |
| CC(C(=O)O)N1CCc2onc(-c3ccc4c(c3)OCO4)c2C1 (configuration not stated) | -3.84 |
| C[C@H](c1ccc(F)cc1)n1c(C2CCN(C)CC2)n[nH]c1=O | 19.4 |
| NCCc1cccc(CN2CCN(c3ccccc3)C(=O)C2)c1 | -9.38 |
| CCN(CC)c1ncnc2c1CCN(CC1CCOCC1)CC2 | -16.3 |
| O=C(C1CC=CC1)N1C[C@@H]2CN(Cc3ccsc3)CCO[C@@H]2C1 | -15.4 |
| CN(C)[C@@H]1CCN(C(=O)c2ccco2)[C@H]1Cc1cnn(C)c1 | -12.7 |
| O=C(c1ccncc1)N1CCc2ncnc(C3CC3)c2CC1 | -14.3 |
| Cn1cc(N2CC3(CCN(Cc4nccn4C)C3)CC2=O)cn1 (configuration not stated) | -12.4 |
| CN(C)c1ncnc2c1CCN(CC1CCOCC1)CC2 | -15 |
| O=C(CCc1ccccc1)N1C[C@@H]2CN(Cc3ccoc3)CCO[C@@H]2C1 | -11.8 |
| O=C(NCc1cccnc1)[C@@H]1C[C@H]2[C@H](CCN2c2ncc(F)cn2)O1 | -4.83 |
| O=C(NCc1cccnc1)[C@@H]1C[C@@H]2CCN(c3ncc(F)cn3)C[C@@H]2O1 | -12.2 |
| O=C1CCC2(CCCN(Cc3nccs3)C2)N1CC1CC1 (configuration not stated) | 10.7 |
| O=C(NCc1cccnc1)[C@@H]1CC[C@@H]2[C@@H](CCN2c2ncccn2)O1 | 15.1 |
| Cc1ccc(N2CCO[C@H]3CN(Cc4cccs4)C[C@H]32)nn1 | 8.57 |

Source: ChEMBL document CHEMBL3507680, “University of Dundee, Gates Library screen for HepG2 cell viability”
